Measured values reported in patent US6753024B2, “Method for making a food preservative and for preserving food” (The United States of America as represented by the …, priority 2002, dated 2004).

Tested on: Micrococcus luteus ATCC 10240
Assay: Inhibition of test bacteria by nisin produced in fermented poi
Type: cell-based
Conditions: nisin produced by Lactococcus lactis subspecies lactis ATCC 11454 in taro; test bacteria known to cause food spoilage
Text: The nisin inhibits a test bacteria, Micrococcus luteus ATCC 10240, known to cause food spoilage. Thus, the Lactococcus lactis subspecies lactis ATCC 11454 grows in the taro and produces a bacteriocin therein.

nisin
inhibition of test bacteria: inhibits
